Here are results for one molecule from patent US20190055576A1, “USE OF HERBICIDE-TOLERANT PROTEIN” (BEIJING DABEINONG TECHNOLOGY GROUP CO., LTD., priority 2016, published 2019).

The structures appear in SMILES notation.

Experiment [1] deals with wild-type Arabidopsis thaliana plants. Description: Herbicide tolerance of wild-type Arabidopsis thaliana plants, resistance classes counted after spraying. The experiment is classed as in vivo. From the text: T1 transformants were initially selected from the background of untransformed seeds using a glufosinate selection scheme. About 40000 T1 seeds were screened, and 380 T1 positive transformants (PAT gene) were identified with a transformation efficiency of about 0.95%. The plants that were transformed with the recombinant expression vector DBN100632 were Arabidopsis thaliana plants having an ALT-1-01 nucleotide sequence located in the cytoplasm introduced (At cytoplasmic ALT-1-01), and the plants that were transformed with the recombinant expression vector DBN100631 were Arabidopsis thaliana plants having an ALT-1-01 nucleotide sequence located in the chloroplast introduced (At chloroplastic ALT-1-01); the plants that were transformed with the recombinant expression vector DBN100634 were Arabidopsis thaliana plants having an ALT-2-01 nucleotide sequence located in the cytoplasm introduced (At cytoplasmic ALT-2-01), and the plants that were transformed with the recombinant expression vector DBN100633 were Arabidopsis thaliana plants having an ALT-2-01 nucleotide sequence located in the chloroplast introduced (At chloroplastic ALT-2-01); and the plants that were transformed with the recombinant expression vector DBN100636 were Arabidopsis thaliana plants having an ALT-3-01 nucleotide sequence located in the cytoplasm introduced (At cytoplasmic ALT-3-01), and the plants that were transformed with the recombinant expression vector DBN100635 were Arabidopsis thaliana plants having an ALT-3-01 nucleotide sequence located in the chloroplast introduced (At chloroplastic ALT-3-01). The herbicide tolerance effects of At cytoplasmic ALT-1-01 T1 plants, At chloroplastic ALT-1-01 T1 plants, At cytoplasmic ALT-2-01 T1 plants, At chloroplastic ALT-2-01 T1 plants, At cytoplasmic ALT-3-01 T1 plants, At chloroplastic ALT-3-01 T1 plants and wild-type Arabidopsis thaliana plants on Sulfometuron-methyl were detected (14 days after sowing), respectively.
At cytoplasmic ALT-1-01 T1 plants, At chloroplastic ALT-1-01 T1 plants, At cytoplasmic ALT-2-01 T1 plants, At chloroplastic ALT-2-01 T1 plants, At cytoplasmic ALT-3-01 T1 plants, At chloroplastic ALT-3-01 T1 plants and wild-type Arabidopsis thaliana plants were sprayed with Sulfometuron-methyl (30 g ai/ha, 1-fold field concentration) and a blank solvent (water), respectively. Plants were counted for the resistance situations 14 days after spraying: those having a consistent growth status with the blank solvent (water) group after 14 days were classified as highly resistant plants, those having a bolting height less than ½ of that of the blank solvent (water) group after 14 days were classified as moderately resistant plants, those still not capable of bolting after 14 days were classified as poorly resistant plants, and those dead after 14 days were classified as non-resistant plants. Since each Arabidopsis thaliana T1 plant was an independent transformation event, a significant difference in individual T1 responses could be expected at a given dose.
At cytoplasmic ALT-1-01 T1 plants, At chloroplastic ALT-1-01 T1 plants, At cytoplasmic ALT-2-01 T1 plants, At chloroplastic ALT-2-01 T1 plants, At cytoplasmic ALT-3-01 T1 plants, At chloroplastic ALT-3-01 T1 plants and wild-type Arabidopsis thaliana plants in Example 4 were sprayed with iodosulfuron-methyl (10 g ai/ha, 1-fold field concentration), mesosulfuron (14 g ai/ha, 1-fold field concentration) and oxasulfuron (60 g ai/ha, 1-fold field concentration), respectively, in addition to Sulfometuron-methyl (30 g ai/ha, 1-fold field concentration) and the blank solvent (water). […]

For experiment [2], the system named is wild-type soybean plants (CK1). Description: Sulfometuron-methyl tolerance of wild-type soybean plants, damage degree. In kind it is in vivo. The settings on record: 120 g ai/ha. From the text: The herbicide tolerance effects of Gm cytoplasmic ALT-1-01 soybean plants, Gm chloroplastic ALT-1-01 soybean plants, Gm cytoplasmic ALT-2-01 soybean plants, Gm chloroplastic ALT-2-01 soybean plants, Gm cytoplasmic ALT-3-01 soybean plants, Gm chloroplastic ALT-3-01 soybean plants and wild-type soybean plants on Sulfometuron-methyl were detected (at seedling stage), respectively.
Gm cytoplasmic ALT-1-01 soybean plants, Gm chloroplastic ALT-1-01 soybean plants, Gm cytoplasmic ALT-2-01 soybean plants, Gm chloroplastic ALT-2-01 soybean plants, Gm cytoplasmic ALT-3-01 soybean plants, Gm chloroplastic ALT-3-01 soybean plants and wild-type soybean plants were respectively taken and sprayed with Sulfometuron-methyl (120 g ai/ha, 4-fold field concentration) and a blank solvent (water). The damage degree caused by the herbicide was measured for each plant according to the leaf curl degree and the growth point damage degree 3 days after spraying (3 DAT), 7 days after spraying (7 DAT), 14 days after spraying (14 DAT) and 21 days after spraying (21 DAT), respectively: considering conditions of leaves being flat as the untreated plants and growth points being intact as having a damage degree of 0%; considering conditions of veins being locally browned, new leaves being malformed and plant growth being slow as having a damage degree of 50%; and considering conditions of veins being purple to whole plant being dead and growth points being browned and dry as having a damage degree of 100%. There were 2 strains in Gm cytoplasmic ALT-1-01 soybean plants in total (S1 and S2), 2 strains in Gm chloroplastic ALT-1-01 soybean plants in total (S3 and S4), 2 strains in Gm cytoplasmic ALT-2-01 soybean plants in total (S5 and S6), 2 strains in Gm chloroplastic ALT-2-01 soybean plants in total (S7 and S8), 2 strains in Gm cytoplasmic ALT-3-01 soybean plants in total (S9 and S10), 2 strains in Gm chloroplastic ALT-3-01 soybean plants in total (S11 and S12), and 1 strain in wild-type soybean plants (CK1) in total; and 10-15 plants were selected from each strain and tested.

Setting [3] is: 1-fold field concentration (g ai/ha: Sulfometuron-methyl 30, iodosulfuron-methyl 10, mesosulfuron 14, oxasulfuron 60), 14 days after spraying.

In the case of `COC(=O)c1ccccc1S(=O)(=O)NC(=O)Nc1nc(C)cc(C)n1` [Sulfometuron-methyl, 2-(4,6-dimethylpyrimidine-2-amino-formamido-sulfonyl) methyl benzoate], in experiment [1] (setting [3]), the “Highly resistant (number of plants with growth status consistent with blank solvent group)” value is 0, the “Moderately resistant (number of plants with bolting height less than 1/2 of blank solvent group)” value worked out at 0, the “Non-resistant (number of plants dead)” value is 32 and the “Poorly resistant (number of plants still not capable of bolting)” value turned out to be 0. Besides, the “herbicide tolerance of wild-type plants” value in experiment [1] (30 g ai/ha) was “none of the wild-type Arabidopsis thaliana plants was tolerant”. In addition, the “Average damage % 3DAT” value in experiment [2] (CK1 (wild-type soybean), 4-fold field concentration, 3 days after spraying) is recorded as 49%. Moreover, in experiment [2] (CK1 (wild-type soybean), 4-fold field concentration, 7 days after spraying), the “Average damage % 7DAT” value amounted to 87%. In experiment [2] (CK1 (wild-type soybean), 4-fold field concentration, 14 days after spraying), the “Average damage % 14DAT” value worked out at 100%. In experiment [2] (CK1 (wild-type soybean), 4-fold field concentration, 21 days after spraying), the “Average damage % 21DAT” value amounted to 100%. In addition, the “herbicide tolerance of wild-type plants” value in experiment [2] (wild-type soybean plants) was “not tolerant”.
